Test results: ChEMBL document CHEMBL1135332, “Synthesis and cytotoxic activity of pyridazino[1',6':1,2]pyrido[3,4-b]indol-5-inium derivatives as anti-cancer agents” (Bioorg Med Chem Lett, 2002)

What was measured:
[1] = tested on: L1210; experiment: Inhibitory concentration required against L1210 leukemia cells; assay type: functional, cell-based; conditions: Mus musculus
[2] = tested on: L1210; experiment: Effect on L1210 cell cycle was determined and percent of treated cells in the G1 phase of L1210 leukemia cells was determined; assay type: functional, Mus musculus
[3] = tested on: L1210; experiment: Effect of compound on L1210 cell cycle was determined and percent of treated cells in the G2M phase of L1210 leukemia cells was determined; assay type: functional, Mus musculus
[4] = tested on: L1210; conditions: Mus musculus
Description: Effect on L1210 cell cycle was determined and percent of treated cells in the G2M phase of L1210 leukemia cells was determined; NS implies not significant.

[5] = tested on: L1210; conditions: Mus musculus; remark: listed apart in the source
Description: Effect on L1210 cell cycle was determined and percent of treated cells in the G1 phase of L1210 leukemia cells was determined; NS implies not significant.

[6] = tested on: L1210; experiment: Cytotoxic concentration against L1210 leukemia cells was determined; 30% apoptosis ([…]) was observed; assay type: functional, cell-based; conditions: Mus musculus
[7] = tested on: L1210; experiment: Effect of compound on L1210 cell cycle was determined and percent of treated cells in the G2M phase of L1210 leukemia cells; assay type: functional, Mus musculus

| Structure (SMILES) | IC50 [1] | Treated cells [4] | Treated cells [5] | also measured |
| --- | --- | --- | --- | --- |
| CCCCCn1c2cc(OC)ccc2c2cc[n+]3nc(CC)c(CC)cc3c21 | 65 nM | – | – | Treated cells [2]: 60% |
| COc1cccc2c1C(=O)c1c(O)c3c(c(O)c1C2=O)C[C@@](O)(C(=O)CO)C[C@@H]3O[C@H]1C[C@H](N)[C@H](O)[C@H](C)O1 [DOXORUBICIN] | – | – | – | Treated cells [3]: 81% |
| CCc1cc2c3[nH]c4ccc(Br)cc4c3cc[n+]2nc1CC | 2300 nM | Not significant | Not significant | – |
| C#CCNC(=O)Cn1c2ccccc2c2cc[n+]3nc(-c4cccc5ccccc45)c(-c4cccc5ccccc45)cc3c21 | 10400 nM | Not significant | Not significant | – |
| CCOC(=O)Cn1c2cc(OC)ccc2c2cc[n+]3nc(C)c(C)cc3c21 | 5000 nM | Not significant | Not significant | – |
| CCOC(=O)CCCn1c2cc(OC)ccc2c2cc[n+]3nc(CC)c(CC)cc3c21 | 2000 nM | Not significant | Not significant | – |
| Cc1cc2c3[nH]c4cc(OCc5ccccc5)ccc4c3cc[n+]2nc1C | 5200 nM | Not significant | Not significant | – |
| CCc1cc2c3[nH]c4c([N+](=O)[O-])cccc4c3cc[n+]2nc1CC | 1500 nM | Not significant | Not significant | Concentration [6]: 5 µM |
| CCc1cc2c3[nH]c4cc(OCc5ccccc5)ccc4c3cc[n+]2nc1CC.[Br-] | 1900 nM | – | – | Treated cells [2]: 54% |
| CCc1cc2c3[nH]c4c(N)cccc4c3cc[n+]2nc1CC | 1000 nM | Not significant | Not significant | Concentration [6]: 5 µM |
| CCOC(=O)Cn1c2cc(OC)ccc2c2cc[n+]3nc(CC)c(CC)cc3c21 | 1100 nM | – | – | Treated cells [3]: 46% |
| CCc1cc2c3[nH]c4cc(OC)ccc4c3cc[n+]2nc1CC | 2000 nM | – | – | Treated cells [7]: 35% |
| CC[C@@]1(O)C(=O)OCc2c1cc1n(c2=O)Cc2cc3ccccc3nc2-1 [CAMPTOTHECIN] | 30 nM | – | – | Treated cells [3]: 80% |
| CCc1cc2c3[nH]c4cc(O)ccc4c3cc[n+]2nc1CC | 10000 nM | Not significant | Not significant | – |
| COc1ccc2c(c1)[nH]c1c2cc[n+]2nc(C)c(C)cc12 | 1300 nM | – | – | Treated cells [7]: 38% |
| C#CCCCn1c2cc(OC)ccc2c2cc[n+]3nc(-c4ccco4)c(-c4ccco4)cc3c21 | 1300 nM | – | – | Treated cells [2]: 54% |
| CCc1cc2c3c(cc[n+]2nc1CC)c1ccccc1n3CCCBr | 1900 nM | Not significant | Not significant | – |
| COc1ccc2c3cc[n+]4nc(/C=C/[Si](C(C)C)(C(C)C)C(C)C)c(/C=C/[Si](C(C)C)(C(C)C)C(C)C)cc4c3n(C)c2c1 | 2300 nM | – | – | – |
| C#CCNC(=O)Cn1c2cc(OC)ccc2c2cc[n+]3nc(CC)c(CC)cc3c21 | 72900 nM | – | – | – |
| CCc1cc2c3[nH]c4ccc([N+](=O)[O-])cc4c3cc[n+]2nc1CC | 15300 nM | Not significant | Not significant | – |
| CCc1cc2c3c(cc[n+]2nc1CC)c1ccc(OC)cc1n3C | 1100 nM | – | – | Treated cells [2]: 65% |
| CCCCCn1c2cc(OC)ccc2c2cc[n+]3nc(C)c(C)cc3c21 | 48 nM | – | – | Treated cells [2]: 57% |
